These results are taken from US4065616A, “Processes for production of a 1-N-(α-hydroxy-.PHI.-amino alkanoyl)-3-deoxy-5-O-pentafuranosyl neamine and new compounds produced by the same processes” (Zaidan Hojin Biseibutsu Kagaku Kenkyu Kai, priority 1975, dated 1977).

For assay [1] the following is noted: clinical tests, in words; cited from earlier work.
Assay [2] relates to kanamycin-resistant bacteria. The conditions noted are these: in words, prior work; cited from earlier work.
The next assay deals with Sarcina lutea PCl 1001. As to the kind of experiment: M.I.C. by standard serial dilution method. It counts as cell-based. The conditions noted are these: Micrococcus luteus, PCL1001, nutrient agar, 37° C, 18 hours, read-out: minimum inhibitory concentration (M.I.C.). The protocol: (§1) These particular compounds, that is, 1-n-(α-hydroxy-ω-aminoalkanoyl)-3'-deoxy-5-O-pentofuranosylneamines according to the aforesaid general formula (I) have useful antibacterial activity against a wide variety of bacteria, including gram-negative bacteria and gram-positive bacteria. The minimum inhibitory concentration (M.I.C.) (mcg/ml) of these compounds against various organisms was determined by a standard serial dilution method at an incubation temperature of 37° C, the estimation being made after 18 hours incubation or each test organism, except that the incubation time was 48 hours for Mycobacterium smegmatis. The incubation medium used was nutrient agar.

Assay [3] concerns Klebsiella pneumoniae Type 22, No. 3038. As to the kind of experiment: M.I.C. by standard serial dilution method. It counts as cell-based. The conditions noted are these: read-out: minimum inhibitory concentration (M.I.C.). The protocol: as §1
Assay [4] deals with Pseudomonas aeruginosa 99. As to the kind of experiment: M.I.C. by standard serial dilution method. It counts as cell-based. The conditions noted are these: P. aeruginosa 99, nutrient agar, 37° C, 18 hours, read-out: minimum inhibitory concentration (M.I.C.). The protocol: as §1
Another assay relates to Proteus rettgeri GN 466. Briefly: M.I.C. by standard serial dilution method. The following applies: Providencia rettgeri, GN466; Proteus rettgeri GN 466; nutrient agar, 37° C, 18 hours; read-out: minimum inhibitory concentration (M.I.C.). It counts as cell-based. The protocol:
as §1

Assay [5] deals with Escherichia coli K-12 LA 290 R56. Briefly: M.I.C. by standard serial dilution method. Type of assay: cell-based. The following applies: K12LA290R56, 18 h, read-out: minimum inhibitory concentration (M.I.C.). The protocol: as §1
The subject of assay [6] is Mycobacterium smegmatis ATCC 607. As to the kind of experiment: M.I.C. by standard serial dilution method. It counts as cell-based. The following applies: Mycolicibacterium smegmatis, ATCC607, nutrient agar, 37° C, 48 hours, read-out: minimum inhibitory concentration (M.I.C.). The protocol:
as §1

In another assay the test system is Escherichia coli NIHJ. As to the kind of experiment: M.I.C. by standard serial dilution method. The conditions noted are these: read-out: minimum inhibitory concentration (M.I.C.). Type of assay: cell-based. The protocol: as §1
Assay [7] has as its system Staphylococcus aureus FDA 209P. Briefly: M.I.C. by standard serial dilution method. Type of assay: cell-based. The following applies: FDA209P, S. aureus FDA 209P, nutrient agar, 37° C, 18 hours, read-out: minimum inhibitory concentration (M.I.C.). The protocol: as §1
Assay [8] has as its system Escherichia coli K-12 ML 1629. Briefly: M.I.C. by standard serial dilution method. It counts as cell-based. The conditions noted are these: read-out: minimum inhibitory concentration (M.I.C.). The protocol: as §1
In assay [9] the test system is Pseudomonas aeruginosa GN 315. As to the kind of experiment: M.I.C. by standard serial dilution method. The following applies: GN315, P. aeruginosa GN 315, nutrient agar, 37° C, 18 hours, read-out: minimum inhibitory concentration (M.I.C.). Type of assay: cell-based. The protocol: as §1
In assay [10] the test system is Escherichia coli K-12 ML 1630. As to the kind of experiment: M.I.C. by standard serial dilution method. It counts as cell-based. The conditions noted are these: K12ML1630, E. coli K-12 ML 1630, nutrient agar, 37° C, 18 hours, read-out: minimum inhibitory concentration (M.I.C.). The protocol: as §1
In assay [11] the test system is Escherichia coli K-12 ML 1410 R81. As to the kind of experiment: M.I.C. by standard serial dilution method. It counts as cell-based. The conditions noted are these: 18 h, read-out: minimum inhibitory concentration (M.I.C.). The protocol:
as §1

The test system of assay [12] is Escherichia coli K-12 JR66/W677. As to the kind of experiment: M.I.C. by standard serial dilution method. It counts as cell-based. The conditions noted are these: K12JR66/W677, 18 h, read-out: minimum inhibitory concentration (M.I.C.). The protocol:
as §1

The subject of another assay is Salmonella typhosa T-63. As to the kind of experiment: M.I.C. by standard serial dilution method. The conditions noted are these: Salmonella enterica, 18 h, read-out: minimum inhibitory concentration (M.I.C.). It counts as cell-based. The protocol: as §1
Another assay deals with Escherichia coli K-12. Briefly: M.I.C. by standard serial dilution method. The conditions noted are these: read-out: minimum inhibitory concentration (M.I.C.). Type of assay: cell-based. The protocol:
as §1

The subject of assay [13] is Escherichia coli K-12 LA 290 R55. Briefly: M.I.C. by standard serial dilution method. Type of assay: cell-based. The conditions noted are these: K12LA290R55, 18 h, read-out: minimum inhibitory concentration (M.I.C.). The protocol:
as §1

In a further assay the test system is Bacillus subtilis B-558. Briefly: M.I.C. by standard serial dilution method. Type of assay: cell-based. The following applies: read-out: minimum inhibitory concentration (M.I.C.). The protocol: as §1
Assay [14] has as its system Pseudomonas aeruginosa No. 12. Briefly: M.I.C. by standard serial dilution method. It counts as cell-based. The following applies: P. aeruginosa No. 12, nutrient agar, 37° C, 18 hours, read-out: minimum inhibitory concentration (M.I.C.). The protocol: as §1
In the next assay the test system is Proteus rettgeri GN 311. As to the kind of experiment: M.I.C. by standard serial dilution method. It counts as cell-based. The conditions noted are these: Providencia rettgeri, GN311, nutrient agar, 37° C, 18 hours, read-out: minimum inhibitory concentration (M.I.C.). The protocol:
as §1

Assay [15] deals with Escherichia coli K-12 W677. As to the kind of experiment: M.I.C. by standard serial dilution method. Type of assay: cell-based. The following applies: read-out: minimum inhibitory concentration (M.I.C.). The protocol:
as §1

Assay [16] concerns Klebsiella pneumoniae PCI 602. Briefly: M.I.C. by standard serial dilution method. Type of assay: cell-based. The conditions noted are these: read-out: minimum inhibitory concentration (M.I.C.). The protocol:
as §1

Assay [17] concerns Pseudomonas aeruginosa A3. Briefly: M.I.C. by standard serial dilution method. It counts as cell-based. The following applies: P. aeruginosa A3, nutrient agar, 37° C, 18 hours, read-out: minimum inhibitory concentration (M.I.C.). The protocol:
as §1

In assay [18] the test system is Escherichia coli K-12 LA 290 R64. As to the kind of experiment: M.I.C. by standard serial dilution method. The conditions noted are these: K12LA290R64, 18 h, read-out: minimum inhibitory concentration (M.I.C.). Type of assay: cell-based. The protocol: as §1
Assay [19] deals with Escherichia coli K-12 ML 1410. Briefly: M.I.C. by standard serial dilution method. The conditions noted are these: K12ML1410, E. coli K-12 ML 1410, nutrient agar, 37° C, 18 hours, read-out: minimum inhibitory concentration (M.I.C.). It counts as cell-based. The protocol: as §1
Assay [20] deals with Pseudomonas aeruginosa TI-13. As to the kind of experiment: M.I.C. by standard serial dilution method. Type of assay: cell-based. The following applies: TI13, P. aeruginosa TI-13, nutrient agar, 37° C, 18 hours, read-out: minimum inhibitory concentration (M.I.C.). The protocol:
as §1

The structures appear in SMILES notation. Values after ≈ are worked out from the molar mass of the structure shown. Read-outs that look alike come from different tables or passages of the source. Some results are limits rather than exact numbers.

Regarding `NC[C@@H]1CC[C@@H](N)[C@@H](O[C@H]2[C@H](O)[C@@H](O[C@H]3O[C@H](CO)[C@@H](O)[C@H](N)[C@H]3O)[C@H](N)C[C@@H]2N)O1` [DKB, 3',4'-dideoxykanamycin B], the clinical usefulness result in [1] was “very useful and effective semi-synthetic antibiotic in clinical tests”. The “antibacterial activity against resistant bacteria” value in assay [2] was “high antibacterial activity against the above-mentioned resistant bacteria”.

For `NCC[C@H](O)C(=O)N[C@@H]1C[C@H](N)[C@@H](O[C@H]2O[C@H](CN)[C@@H](O)C[C@H]2N)[C@H](O[C@@H]2O[C@@H](CO)[C@H](O)[C@H]2O)[C@H]1O` [Compound No. 3, 1-N-((S)-4-amino-2-hydroxybutyryl)-3'-deoxy-5-O-α-L-arabinofuranosylneamine], the MIC in the assay on Sarcina lutea PCl 1001 was found to be 25 µg/mL (≈ 46.3 µM); in assay [3] (K. pneumoniae Type 22, No. 3038, nutrient agar, 37° C, 18 hours) it was 0.39 µg/mL (≈ 0.723 µM); in [4], 6.25 µg/mL (≈ 11.6 µM); with Proteus rettgeri GN 466, 0.78 µg/mL (≈ 1.45 µM); in assay [5], 0.39 µg/mL (≈ 0.723 µM); in assay [6], 0.2 µg/mL (≈ 0.371 µM). Also, the MIC is 0.78 µg/mL (≈ 1.45 µM) in the assay with Escherichia coli NIHJ (E. coli NIHJ, nutrient agar, 37° C, 18 hours); 0.39 µg/mL (≈ 0.723 µM) in [7]; 0.39 µg/mL (≈ 0.723 µM) in [8] (K12ML1629, E. coli K-12 ML 1629, nutrient agar, 37° C, 18 hours); greater than 100 µg/mL in assay [9]; 0.78 µg/mL (≈ 1.45 µM) in [10]; 1.56 µg/mL (≈ 2.89 µM) in assay [11]. Besides, the MIC in assay [12] was 1.56 µg/mL (≈ 2.89 µM); in the assay with Salmonella typhosa T-63, 0.78 µg/mL (≈ 1.45 µM); in the assay on Escherichia coli K-12 (K12, E. coli K-12, nutrient agar, 37° C, 18 hours), 0.39 µg/mL (≈ 0.723 µM); in assay [13] it was 1.56 µg/mL (≈ 2.89 µM); in the assay on Bacillus subtilis B-558 (B558, B. subtilis B-558, nutrient agar, 37° C, 18 hours) it was 0.2 µg/mL (≈ 0.371 µM); in assay [14], 12.5 µg/mL (≈ 23.2 µM). In addition, the MIC in the assay on Proteus rettgeri GN 311 was determined as 3.12 µg/mL (≈ 5.78 µM); in assay [15] (K12W677, E. coli K-12 W677, nutrient agar, 37° C, 18 hours), 0.39 µg/mL (≈ 0.723 µM); in [16] (PCI602, K. pneumoniae PCI 602, nutrient agar, 37° C, 18 hours), 0.39 µg/mL (≈ 0.723 µM); in [17], 0.78 µg/mL (≈ 1.45 µM); in [18] it was 0.2 µg/mL (≈ 0.371 µM); in [19], 0.78 µg/mL (≈ 1.45 µM). The MIC in [20] stood at 25 µg/mL (≈ 46.3 µM).

Consider `NCC(O)C(=O)N[C@@H]1C[C@H](N)[C@@H](O[C@H]2O[C@H](CN)[C@@H](O)C[C@H]2N)[C@H](O[C@@H]2O[C@H](CO)[C@H](O)[C@H]2O)[C@H]1O` (stereo partly drawn) [Compound No. 1, 1N-((RS)-3-amino-2-hydroxypropionyl)-3'-deoxy-5-O-β-D-xylofuranosylneamine], for which the MIC with Sarcina lutea PCl 1001 was found to be 25 µg/mL (≈ 47.6 µM); in [3] (18 h) it was 1.56 µg/mL (≈ 2.97 µM); in [4], 12.5 µg/mL (≈ 23.8 µM); in the assay with Proteus rettgeri GN 466, 3.12 µg/mL (≈ 5.94 µM); in [5], 3.12 µg/mL (≈ 5.94 µM); in assay [6], 0.39 µg/mL (≈ 0.742 µM). The MIC in the assay on Escherichia coli NIHJ (18 h) was 1.56 µg/mL (≈ 2.97 µM); in assay [7], 3.12 µg/mL (≈ 5.94 µM); in [8] (K12ML1629, 18 h) it was 1.56 µg/mL (≈ 2.97 µM); in [9], greater than 100 µg/mL; in assay [10], 3.12 µg/mL (≈ 5.94 µM); in assay [11], 6.25 µg/mL (≈ 11.9 µM). The MIC in assay [12] is 3.12 µg/mL (≈ 5.94 µM); in the assay on Salmonella typhosa T-63, 1.56 µg/mL (≈ 2.97 µM); with Escherichia coli K-12 (K12, 18 h), 1.56 µg/mL (≈ 2.97 µM); in [13], 3.12 µg/mL (≈ 5.94 µM); with Bacillus subtilis B-558 (B558, 18 h), 1.56 µg/mL (≈ 2.97 µM); in assay [14] it was 12.5 µg/mL (≈ 23.8 µM). Moreover, the MIC in the assay on Proteus rettgeri GN 311 is 12.5 µg/mL (≈ 23.8 µM); in assay [15] (K12W677, 18 h) it was 1.56 µg/mL (≈ 2.97 µM); in [16] (PCI602, 18 h), 1.56 µg/mL (≈ 2.97 µM); in assay [17] it was 6.25 µg/mL (≈ 11.9 µM); in assay [18], 1.56 µg/mL (≈ 2.97 µM); in assay [19], 3.12 µg/mL (≈ 5.94 µM). Moreover, in [20], the MIC was 25 µg/mL (≈ 47.6 µM).
